{
  "source": "paper PMC5049701",
  "about": "(Nature chemical biology, 2016)",
  "target": "T1, FsqB (Aspergillus fumigatus, UniProt Q4WD43)",
  "T1 sequence (Q4WD43 1-497)": "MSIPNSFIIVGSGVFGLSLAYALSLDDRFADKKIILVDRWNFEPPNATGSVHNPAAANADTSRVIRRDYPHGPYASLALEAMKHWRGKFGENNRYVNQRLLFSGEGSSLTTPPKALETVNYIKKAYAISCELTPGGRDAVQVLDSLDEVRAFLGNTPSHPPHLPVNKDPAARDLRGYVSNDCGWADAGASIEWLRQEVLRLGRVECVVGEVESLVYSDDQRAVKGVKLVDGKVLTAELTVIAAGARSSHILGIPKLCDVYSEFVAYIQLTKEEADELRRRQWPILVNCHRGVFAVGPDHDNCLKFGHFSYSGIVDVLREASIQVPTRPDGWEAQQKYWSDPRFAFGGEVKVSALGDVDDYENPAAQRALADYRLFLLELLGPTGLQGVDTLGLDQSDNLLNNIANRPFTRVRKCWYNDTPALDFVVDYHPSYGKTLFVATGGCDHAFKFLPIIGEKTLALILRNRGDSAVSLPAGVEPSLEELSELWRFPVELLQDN",
  "assay": "tryptic digest UHPLC-MS/MS",
  "assay_type": "binding",
  "conditions": "covalent, bound to cysteine-414",
  "data": [
    {"smiles": "Cc1cc2nc3c(=O)[nH]c(=O)nc-3n(C[C@H](O)[C@H](O)[C@H](O)COP(=O)(O)OP(=O)(O)OC[C@H]3O[C@@H](n4cnc5c(N)ncnc54)[C@H](O)[C@@H]3O)c2cc1C", "note": "[FAD]", "values": [
      {"measurement": "tryptic digest UHPLC-MS/MS; flavin fluorescence", "value": "presence of FAD, which was found to be covalently bound to cysteine-414"}
    ]}
  ]
}
